Test results reported in US8309721B2, “HSP90 inhibitory carbazole derivatives, compositions containing same and use thereof” (Sanofi, priority 2008, dated 2012).
pIC50: −log10 of the molar value.

Test system: Her2 receptor expression at the surface of SKBr3 cells
Experiment: phenotypic SKBr3/HER2 cell test (Her2 surface expression by flow cytometry)
Assay type: cell-based
Conditions: inhibition of Her2 expression
Method: The cellular activity of the compounds can in particular be evaluated by means of the phenotypic “SKBr3/HER2” cell test described below:
The SKBr3 […] adenocarcinoma cells, overexpressing the Her2 tyrosine kinase receptor, originate from the ATCC (HTB-30) and are cultured in McCoy's 5A medium supplemented with 10% FBS and 1% L-glutamine.
The cells are seeded in 12-well plates at a proportion of 125 000 cells per well in 1 ml of complete medium. The following day, the products are added at varying concentrations. After incubation for 24 h, the cells are trypsinized, washed with PBS and incubated with 100 ng of anti-Her2 antibody coupled to PE (Phycoerythrin) (BD 340552) for 30 minutes at 4° C. in the dark. The fluorescence due to the expression of the Her2 receptor at the surface of the cells is then read using a FACS Calibur flow cytometer (Becton-Dickinson). The percentage inhibition of Her2 expression as a function of the concentrations of product tested is fitted by the nonlinear regression technique (XLfit, equation 205) in order to measure an IC50 for each product.

[1] = Homo sapiens, SK-BR-3, 24 h incubation

In the case of NC(=O)c1ccc(-n2c3ccccc3c3c(-c4nc5ccc(F)cc5[nH]4)cccc32)cc1NCc1cccnc1 [Example 104, 4-[4-(6-fluoro-1H-benzimidazol-2-yl)-9H-carbazol-9-yl]-2-[(pyridin-3-ylmethyl)amino]benzamide], the pIC50 [1] was > 6.00.

For NC(=O)c1ccc(-n2c3ccccc3c3c(-c4cnc5ccccc5c4)cccc32)cc1N[C@H]1CN2CCC1CC2 [Example 108, 2-((R)-(1-azabicyclo[2.2.2]oct-3-yl)amino)-4-[4-(quinolin-3-yl)-9H-carbazol-9-yl]benzamide], the pIC50 [1] was > 6.00.

For CC(C)(O)CNc1cc(-n2c3ccccc3c3c(-c4cnc5ccccc5c4)cccc32)cnc1C(N)=O [Example 139], the pIC50 [1] was > 6.00.

With NC(=O)c1cnc(-n2c3ccccc3c3c(-c4cnc5ccccc5c4)cccc32)cc1NC1CCOCC1 [Example 137] the pIC50 [1] was > 6.00.

For N#Cc1ccc(-c2cccc3c2c2ccccc2n3-c2ccc(C(N)=O)c(NCCF)c2)cn1 [Example 134, 4-[4-(6-cyanopyridin-3-yl)-9H-carbazol-9-yl]-2-[(2-fluoroethyl)amino]benzamide], the pIC50 [1] was > 6.00.

In the case of NC(=O)c1ccc(-n2c3ccccc3c3c(-c4cnc5ccccc5c4)cccc32)cc1NCC1(O)CC1 [Example 121, 4-[4-(quinolin-3-yl)-9H-carbazol-9-yl]-2-[(1-hydroxycyclopropan-1-yl)methylamino]benzamide], the pIC50 [1] was > 6.00.

In the case of CC1(C)CC(Nc2cc(-n3c4ccccc4c4c(-c5cnc6ccccc6c5)cccc43)ccc2C(N)=O)CC(C)(C)N1 [Example 84, 4-[4-(quinolin-3-yl)-9H-carbazol-9-yl]-2-(2,2,6,6-tetramethyl-1H-piperidin-4-ylamino]benzamide], the pIC50 [1] was > 6.00.

NCC(=O)O[C@H]1CC[C@H](Nc2cc(-n3c4ccccc4c4c(-c5cnc6ccccc6c5)cccc43)cnc2C(N)=O)CC1 [Example 128, aminoacetic acid 4-trans-{[2-carbamoyl-5-(quinolin-3-yl)-9H-carbazol-9-yl]pyridin-3-ylamino}cyclohexyl ester] was tested, and the pIC50 [1] was > 6.00.

With NC(=O)c1ccc(-n2c3ccccc3c3c(-c4nc5ccc(F)cc5[nH]4)cccc32)cc1NCCc1cccnc1 [Example 106, 4-[4-(6-fluoro-1H-benzimidazol-2-yl)-9H-carbazol-9-yl]-2-[2-(pyridin-3-yl)-ethylamino]benzamide] the pIC50 [1] was > 6.00.

CC(C)(O)CCNc1cc(-n2c3ccccc3c3c(-c4ccc(C#N)nc4)cccc32)ccc1C(N)=O [Example 125, 4-[4-(6-cyanopyridin-3-yl)-9H-carbazol-9-yl]-2-[(3-hydroxy-3-methylbutyl)amino]benzamide] was tested, and the pIC50 [1] was > 6.00.

For NC(=O)c1ccc(-n2c3ccccc3c3c(-c4cncc(O)c4)cccc32)cc1NCCCO [Example 141, 2-[(3-hydroxypropyl)amino]-4-[4-(5-hydroxypyridin-3-yl)-9H-carbazol-9-yl]benzamide], the pIC50 [1] was > 6.00.

With NC(=O)c1ccc(-n2c3ccccc3c3c(-c4cnc5ccccc5c4)cccc32)cc1NC[C@@H]1CCCC[C@@H]1O (racemic) [Example 95] the pIC50 [1] was > 6.00.

NC(=O)c1ccc(-n2c3ccccc3c3c(-c4cnc5ccccc5c4)cccc32)cc1N[C@H]1CCCC[C@@H]1CO (racemic) [Example 100, 2-[1(R,S),2(R,S)-2-hydroxymethyl-cyclohexyl-1-amino]-4-[4-(quinolin-3-2-yl)-9H-carbazol-9-yl]benzamide] was tested, and the pIC50 [1] was > 6.00.

In the case of NC(=O)c1ccc(-n2c3ccccc3c3c(-c4nc5ccc(F)cc5[nH]4)cccc32)cc1N[C@H]1CN2CCC1CC2 [Example 98, 2-{(R)-(1-azabicyclo[2.2.2]oct-3-yl)amino}-4-[4-(6-fluoro-1H-benzimidazol-2-yl)-9H-carbazol-9-yl]benzamide], the pIC50 [1] was > 6.00.

NC(=O)c1ccc(-n2c3ccccc3c3c(-c4nc5cc(F)ccc5[nH]4)cccc32)cc1N[C@H]1CCCC[C@@H]1CO (single isomer, unassigned) [Example 131] was tested, and the pIC50 (24 h incubation) was > 6.00.

With NC(=O)c1ccc(-n2c3ccccc3c3c(-c4nc5ccc(F)cc5[nH]4)cccc32)cc1N[C@H]1CCCC[C@H]1CO (racemic) [Example 96] the pIC50 [1] was > 6.00.

With NC(=O)c1ccc(-n2c3ccccc3c3c(-c4cnc5ccccc5c4)cccc32)cn1 [Example 78, 5-[4-(quinolin-3-yl)-9H-carbazol-9-yl]pyridin-2-amide] the pIC50 [1] was 5.00 to 6.00.

In the case of CC1(C)CC(Nc2cc(-n3c4ccccc4c4c(-c5nc6ccc(F)cc6[nH]5)cccc43)ccc2C(N)=O)CC(C)(C)N1 [Example 83], the pIC50 [1] was > 6.00.

With NC(=O)c1ccc(-n2c3ccccc3c3c(-c4cnc5ccccc5c4)cccc32)cc1NCCF [Example 77, 2-(2-fluoroethylamino)-4-[4-(quinolin-3-yl)-9H-carbazol-9-yl]benzamide] the pIC50 [1] was > 6.00.

In the case of Cn1cnc(CNc2cc(-n3c4ccccc4c4c(-c5nc6ccc(F)cc6[nH]5)cccc43)ccc2C(N)=O)c1 [Example 110, 4-[4-(6-fluoro-1H-benzimidazol-2-yl)-9H-carbazol-9-yl]-2-[(1-methyl-1H-imidazol-4-yl)methylamino]benzamide], the pIC50 [1] was > 6.00.

Cn1cc(CNc2cc(-n3c4ccccc4c4c(-c5nc6ccc(F)cc6[nH]5)cccc43)ccc2C(N)=O)cn1 [Example 115, 4-[4-(6-fluoro-1H-benzimidazol-2-yl)-9H-carbazol-9-yl]-2-[(1-methyl-1H-pyrazol-4-yl)methylamino]benzamide] was tested, and the pIC50 [1] was > 6.00.

For NC(=O)c1ccc(-n2c3ccccc3c3c(-c4cnc5ccccc5c4)cccc32)cc1NCCCF [Example 76, 2-(3-fluoropropylamino)-4-[4-(quinolin-3-yl)-9H-carbazol-9-yl]benzamide], the pIC50 [1] was > 6.00.

For NC(=O)c1ncc(-n2c3ccccc3c3c(-c4cnc5ccccc5c4)cccc32)cc1NC1CCOCC1 [Example 116], the pIC50 [1] was > 6.00.

With NC(=O)c1ccc(-n2c3ccccc3c3c(-c4cnc5ccccc5c4)cccc32)cc1NC1CCCC(O)C1 [Example 109, 2-(3(R,S)-hydroxycyclohexyl-1(R,S)-amino)-4-[4-(quinolin-3-yl)-9H-carbazol-9-yl]benzamide] the pIC50 [1] was > 6.00.

NC(=O)c1cnc(-n2c3ccccc3c3c(-c4cnc5ccccc5c4)cccc32)cc1N[C@H]1CC[C@H](O)CC1 [Example 142, 2-[4-(quinolin-3-yl)-9H-carbazol-9-yl]-4-(4-trans-hydroxycyclohexylamino)pyridine-5-carboxamide] was tested, and the pIC50 [1] was > 6.00.

With CC(C)(O)CCNc1cc(-n2c3ccccc3c3c(-c4cnc5ccccc5c4)cccc32)ccc1C(N)=O [Example 72, 2-(3-hydroxy-3-methylbutylamino)-4-[4-(quinolin-3-yl)-9H-carbazol-9-yl]benzamide] the pIC50 [1] was > 6.00.

With NC(=O)c1ccc(-n2c3ccccc3c3c(-c4cnc5ccccc5c4)cccc32)cc1NCCc1ccccn1 [Example 80, 4-[4-(quinolin-3-yl)-9H-carbazol-9-yl]-2-[2-(pyridin-2-yl)ethylamino]benzamide] the pIC50 [1] was > 6.00.

With CN1C(C)(C)CC(Nc2cc(-n3c4ccccc4c4c(-c5nc6ccc(F)cc6[nH]5)cccc43)ccc2C(N)=O)CC1(C)C [Example 85, 4-[4-(6-fluoro-1H-benzimidazol-2-yl)-9H-carbazol-9-yl]-2-(1,2,2,6,6-pentamethyl-1H-piperidin-4-ylamino]benzamide] the pIC50 [1] was > 6.00.

CN1CCC(O)(CNc2cc(-n3c4ccccc4c4c(-c5cnc6ccccc6c5)cccc43)ccc2C(N)=O)CC1 [Example 103, 2-[(4-hydroxy-1-methylpiperidin-4-ylmethyl)-amino]-[4-(quinolin-3-yl)-9H-carbazol-9-yl]benzamide] was tested, and the pIC50 [1] was > 6.00.

CN1C(C)(C)CC(Nc2cc(-n3c4ccccc4c4c(-c5ccc(C#N)nc5)cccc43)ccc2C(N)=O)CC1(C)C [Example 127, 4-[4-(6-cyanopyridin-3-yl)-9H-carbazol-9-yl]-2-[(1,2,2,6,6-pentamethylpiperidin-4-yl)amino]benzamide] was tested, and the pIC50 [1] was > 6.00.

With NC(=O)c1ccc(-n2c3ccccc3c3c(-c4nc5ccc(F)cc5[nH]4)cccc32)cc1N[C@@H]1CN2CCC1CC2 [Example 99, 2-{(S)-(1-azabicyclo[2.2.2]oct-3-yl)amino}-4-[4-(6-fluoro-1H-benzimidazol-2-yl)-9H-carbazol-9-yl]benzamide] the pIC50 [1] was > 6.00.

NC(=O)c1ccc(-n2c3ccccc3c3c(-c4nc5ccc(F)cc5[nH]4)cccc32)cc1NCc1ccccn1 [Example 81, 4-[4-(6-fluoro-1H-benzimidazol-2-yl)-9H-carbazol-9-yl]-2-[(pyridin-2-ylmethyl)amino]benzamide] was tested, and the pIC50 [1] was > 6.00.

In the case of NC(=O)c1ccc(-n2c3ccccc3c3c(-c4nc5ccc(F)cc5[nH]4)cccc32)cc1NC[C@@H]1CCCC[C@@H]1O (racemic) [Example 93], the pIC50 [1] was > 6.00.

For NC(=O)c1ccc(-n2c3ccccc3c3c(-c4nc5ccc(F)cc5[nH]4)cccc32)cc1N[C@H]1CCCC[C@@H]1CO (racemic) [Example 97], the pIC50 [1] was > 6.00.

For NC(=O)c1ccc(-n2c3ccccc3c3c(-c4nc5ccc(F)cc5[nH]4)cccc32)cc1NCCn1ccnc1 [Example 82, 4-[4-(6-fluoro-1H-benzimidazol-2-yl)-9H-carbazol-9-yl]-2-[2-(1H-imidazol-1-yl]ethylamino]benzamide], the pIC50 [1] was > 6.00.

With NC(=O)c1ccc(-n2c3ccccc3c3c(-c4cnc5ccccc5c4)cccc32)cc1NCc1cocn1 [Example 94, 2-[(oxazol-4-ylmethyl)amino]-4-[4-(quinolin-3-yl)-9H-carbazol-9-yl]benzamide] the pIC50 [1] was > 6.00.
